Source: patent US11440923B2, “Substituted macrocyclic indole derivatives” (Bayer Aktiengesellschaft, priority 2017, dated 2022)
Counter-ions that a name gives are not always drawn. Like-named read-outs stand apart in the source and are kept apart here.

Assays:
AMO-1 cells = test: Antiproliferation assay AMO-1 (Assay 7); assay type: cell-based
Procedure, shortened: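 Growth inhibition is determined from ATP luminescence (CellTiter-Glo) following 72 h incubation with compound. Time-zero cells are measured the same way for baseline, and IC50s are referenced to DMSO controls.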

SUDHL10 cells = test: Induction of cytotoxicity in SUDHL10 cells (Assay 6); assay type: cell-based; details: 5 h, CellTiter-Glo, read-out: Cytotox SUDHL10 IC50 (median)
Procedure, shortened: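 Cells plated overnight at 37 °C, then exposed to compound for 5 h in a humidified incubator at 37 °C. Viability read by CellTiter-Glo luminescence after 15 min shaking at room temperature; cell-free medium served as control.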

[1] = Homo sapiens, AMO1, 72 h, 72 h, CellTiter-Glo; read-out: Antiproli AMO-1 IC50 median
[2] = 72 h, CellTiter-Glo; read-out: Antiproli AMO-1 IC50 median

| Structure (SMILES) | IC50 (AMO-1 cells; [1]) [nM] | IC50 (SUDHL10 cells; Homo sapiens, SU-DHL10, 5 h) [nM] | IC50 (AMO-1 cells; [2]) [nM] | IC50 (SUDHL10 cells) [nM] | IC50 (AMO-1 cells; read-out: Antiproli AMO-1 IC50 median; 72 h, CellTiter-Glo) [nM] |
| --- | --- | --- | --- | --- | --- |
| CCc1c2c(nn1C)C(CC(C)(C)O)OCCCCn1c(C(=O)O)c(CCCOc3cccc4cc(F)ccc34)c3ccc(Cl)c-2c31 (racemic) [Example 52, (rac)-4-chloro-3-ethyl-7-{3-[(6-fluoronaphthalen-1-yl)oxy]propyl}-(15-rac)-(2-hydroxy-2-methylpropyl)-2-methyl-2,10,11,12,13,15-hexahydropyrazolo[4′,3′:9,10][1,6]oxazacycloundecino[8,7,6-hi]indole-8-carboxylic Acid] | 107 | 280 | – | – | – |
| CCc1c2c(nn1C)C(CCN1CCOCC1)OCCCCn1c(C(=O)O)c(CCCOc3cccc4cc(F)ccc34)c3ccc(F)c-2c31 (racemic) [Example 49, (rac)-3-Ethyl-4-fluoro-7-{3-[(6-fluoronaphthalen-1-yl)oxy]propyl}-2-methyl-(15-rac)-[2-(morpholin-4-yl)ethyl]-2,10,11,12,13,15-hexahydropyrazolo[4′,3′:9,10][1,6]oxazacycloundecino[8,7,6-hi]indole-8-carboxylic Acid] | 76.7 | 33 | – | – | – |
| CCc1c2c(nn1C)C(CCC1CCOCC1)OCCCCn1c(C(=O)O)c(CCCOc3cccc4cc(F)ccc34)c3ccc(Cl)c-2c31 (single isomer, unassigned; enantiomer 1) [Example 61, 4-chloro-3-ethyl-7-{3-[(6-fluoronaphthalen-1-yl)oxy]propyl}-2-methyl-15-[2-(oxan-4-yl)ethyl]-2,10,11,12,13,15-hexahydropyrazolo[4′,3′:9,10][1,6]oxazacycloundecino[8,7,6-hi]indole-8-carboxylic Acid (Enantiomer 1)] | – | – | 22.5 | 29 | – |
| CCc1c2c(nn1C)C(CCO)OCCCCn1c(C(=O)O)c(CCCOc3cccc4cc(F)ccc34)c3ccc(Cl)c-2c31 (single isomer, unassigned; enantiomer 2) [Example 46, (−)-4-chloro-3-ethyl-7-{3-[(6-fluoronaphthalen-1-yl)oxy]propyl}-15-(2-hydroxyethyl)-2-methyl-2,10,11,12,13,15-hexahydropyrazolo[4′,3′:9,10][1,6]oxazacycloundecino[8,7,6-hi]indole-8-carboxylic Acid (Enantiomer 2)] | – | – | 8650 | 5500 | – |
| CCc1c2c(nn1C)C(CCC1CCOCC1)OCCCCn1c(C(=O)O)c(CCCOc3cccc4cc(F)ccc34)c3ccc(Cl)c-2c31 (racemic) [Example 60, (rac)-4-chloro-3-ethyl-7-{3-[(6-fluoronaphthalen-1-yl)oxy]propyl}-2-methyl-(15-rac)-[2-(oxan-4-yl)ethyl]-2,10,11,12,13,15-hexahydropyrazolo[4′,3′:9,10][1,6]oxazacycloundecino[8,7,6-hi]indole-8-carboxylic Acid] | 92.9 | – | – | 87 | – |
| CCc1c2c(nn1C)C(C1CC1)OCCCCn1c(C(=O)O)c(CCCOc3cccc4cc(F)ccc34)c3ccc(Cl)c-2c31 (racemic) [Example 38, (rac)-4-chloro-(15-rac)-cyclopropyl-3-ethyl-7-{3-[(6-fluoronaphthalen-1-yl)oxy]propyl}-2-methyl-2,10,11,12,13,15-hexahydropyrazolo[4′,3′:9,10][1,6]oxazacycloundecino[8,7,6-hi]indole-8-carboxylic Acid] | 5010 | 6300 | – | – | – |
| COCCC1OCCCCn2c(C(=O)O)c(CCCOc3cccc4ccccc34)c3ccc(Cl)c(c32)-c2c1nn(C)c2C (racemic) [Example 37, (rac)-4-chloro-(15-rac)-(2-methoxyethyl)-2,3-dimethyl-7-{3-[(naphthalen-1-yl)oxy]propyl}-2,10,11,12,13,15-hexahydropyrazolo[4′,3′:9,10][1,6]oxazacycloundecino[8,7,6-hi]indole-8-carboxylic Acid] | 536 | 360 | – | – | – |
| CCc1c2c(nn1C)C(CCO)OCCCCn1c(C(=O)O)c(CCCOc3cccc4cc(F)ccc34)c3ccc(Cl)c-2c31 (racemic) [Example 44, (rac)-4-chloro-3-ethyl-7-{3-[(6-fluoronaphthalen-1-yl)oxy]propyl}-(15-rac)-(2-hydroxyethyl)-2-methyl-2,10,11,12,13,15-hexahydropyrazolo[4′,3′:9,10][1,6]oxazacycloundecino[8,7,6-hi]indole-8-carboxylic Acid] | 161 | 200 | – | – | – |
| CCc1c2c(nn1C)C(CCN1CCC(F)(F)C1)OCCCCn1c(C(=O)O)c(CCCOc3cccc4cc(F)ccc34)c3ccc(Cl)c-2c31 (single isomer, unassigned; enantiomer 1) [Example 56, 4-chloro-15-[2-(3,3-difluoropyrrolidin-1-yl)ethyl]-3-ethyl-7-{3-[(6-fluoronaphthalen-1-yl)oxy]propyl}-2-methyl-2,10,11,12,13,15-hexahydropyrazolo[4′,3′:9,10][1,6]oxazacycloundecino[8,7,6-hi]indole-8-carboxylic Acid—N-ethylethanamine Salt (Enantiomer 1)] | – | – | – | 39 | 22.6 |
| CCc1c2c(nn1C)C(CCN1CCC(F)(F)C1)OCCCCn1c(C(=O)O)c(CCCOc3cccc4cc(F)ccc34)c3ccc(Cl)c-2c31 (racemic) [Example 55, (rac)-4-chloro-(15-rac)-[2-(3,3-difluoropyrrolidin-1-yl)ethyl]-3-ethyl-7-{3-[(6-fluoronaphthalen-1-yl)oxy]propyl}-2-methyl-2,10,11,12,13,15-hexahydropyrazolo[4′,3′:9,10][1,6]oxazacycloundecino[8,7,6-hi]indole-8-carboxylic acid—2-hydroxypropane-1,2,3-tricarboxylic Acid Salt] | 75.3 | 68 | – | – | – |
| CCC1OCCCCn2c(C(=O)O)c(CCCOc3cccc4ccccc34)c3ccc(Cl)c(c32)-c2c1nn(C)c2C (racemic) [Example 25, (rac)-4-chloro-15-ethyl-2,3-dimethyl-7-{3-[(naphthalen-1-yl)oxy]propyl}-2,10,11,12,13,15-hexahydropyrazolo[4′,3′:9,10][1,6]oxazacycloundecino[8,7,6-hi]indole-8-carboxylic Acid] | 6550 | 8800 | – | – | – |
| CCc1c2c(nn1C)C(CCC1CCOCC1)OCCCCn1c(C(=O)O)c(CCCOc3cccc4cc(F)ccc34)c3ccc(Cl)c-2c31 (single isomer, unassigned; enantiomer 2) [Example 62, (−)-4-chloro-3-ethyl-7-{3-[(6-fluoronaphthalen-1-yl)oxy]propyl}-2-methyl-15-[2-(oxan-4-yl)ethyl]-2,10,11,12,13,15-hexahydropyrazolo[4′,3′:9,10][1,6]oxazacycloundecino[8,7,6-hi]indole-8-carboxylic Acid (Enantiomer 2)] | – | – | 1920 | 7800 | – |
| Cc1c2c(nn1C)C(CCN1CCOCC1)OCCCCn1c(C(=O)O)c(CCCOc3cccc4ccccc34)c3ccc(Cl)c-2c31 (racemic) [Example 13, (rac)-4-chloro-2,3-dimethyl-15-[2-(morpholin-4-yl)ethyl]-7-{3-[(naphthalen-1-yl)oxy]propyl}-2,10,11,12,13,15-hexahydropyrazolo[4′,3′:9,10][1,6]oxazacycloundecino[8,7,6-hi]indole-8-carboxylic Acid] | 191 | 210 | – | – | – |
| CCc1c2c(nn1C)C(CCN1CCOCC1)OCCCCn1c(C(=O)O)c(CCCOc3cccc4cc(F)ccc34)c3ccc(Cl)c-2c31 (racemic) [Example 22, (rac)-4-chloro-3-ethyl-7-{3-[(6-fluoronaphthalen-1-yl)oxy]propyl}-2-methyl-15-[2-(morpholin-4-yl)ethyl]-2,10,11,12,13,15-hexahydropyrazolo[4′,3′:9,10][1,6]oxazacycloundecino[8,7,6-hi]indole-8-carboxylic Acid] | 32.2 | 28 | – | – | – |
| CCc1c2c(nn1C)C(CCOC)OCCCCn1c(C(=O)O)c(CCCOc3cccc4cc(F)ccc34)c3ccc(Cl)c-2c31 (racemic) [Example 41, (rac)-4-chloro-3-ethyl-7-{3-[(6-fluoronaphthalen-1-yl)oxy]propyl}-(15-rac)-(2-methoxyethyl)-2-methyl-2,10,11,12,13,15-hexahydropyrazolo[4′,3′:9,10][1,6]oxazacycloundecino[8,7,6-hi]indole-8-carboxylic Acid] | 135 | 160 | – | – | – |
| Cc1c2c(nn1C)C(CCN1CCOCC1)OCCCCn1c(C(=O)O)c(CCCOc3cccc4cc(F)ccc34)c3ccc(F)c-2c31 (racemic) [Example 19, (rac)-4-fluoro-7-{3-[(6-fluoronaphthalen-1-yl)oxy]propyl}-2,3-dimethyl-15-[2-(morpholin-4-yl)ethyl]-2,10,11,12,13,15-hexahydropyrazolo[4′,3′:9,10][1,6]oxazacycloundecino[8,7,6-hi]indole-8-carboxylic Acid] | 102 | 110 | – | – | – |
| Cc1c2c(nn1C)C(CCN1CCOCC1)OCCCCn1c(C(=O)O)c(CCCOc3cccc4cc(F)ccc34)c3ccc(F)c-2c31 (single isomer, unassigned; enantiomer 2) [Example 21, 4-fluoro-7-{3-[(6-fluoronaphthalen-1-yl)oxy]propyl}-2,3-dimethyl-15-[2-(morpholin-4-yl)ethyl]-2,10,11,12,13,15-hexahydropyrazolo[4′,3′:9,10][1,6]oxazacycloundecino[8,7,6-hi]indole-8-carboxylic Acid (Enantiomer 2)] | > 33000 | 14000 | – | – | – |
